Assay: Acute toxicity study, single intravenous dose (non-GLP)
Assay type: in vivo, Sprague-Dawley rats
Conditions: female rats; for Lung - focal red areas medial right lobe (2 mm diameter) (incidence at necropsy) / Lung - haemorrhagic area right caudal lobe (1mm diameter) (incidence at necropsy) / Multifocal red petechiae on all lung lobes (incidence at necropsy) / Pale yellow liver (minimal) (incidence at necropsy) / ALP / ALT / APTT / AST / Albumin / Albumin/Globulin / Bilirubin (Total) / Calcium / Chloride / Cholesterol / Creatinine / Globulin / Glucose / HCT / HGB / MCH / MCHC / MCV / PLT / PT / Phosphate / Potassium / Protein (Total) / RBC / Retc. / Sodium / Triglycerides / Urea / WBC: day 15; for ALP / ALT / APTT / AST / Albumin / Albumin/Globulin / Bilirubin (Total) / Calcium / Chloride / Cholesterol / Creatinine / Globulin / Glucose / HCT / HGB / MCH / MCHC / MCV / PLT / PT / Phosphate / Potassium / Protein (Total) / RBC / Retc. / Sodium / Triglycerides / Urea / WBC: mean ± SD
Protocol: This acute toxicity study included a satellite group for toxicokinetic assessment. The toxicity study was comprised of 12 male and 12 female rats, which were allocated into four groups of three males and three females. The toxicity of the test substance, WEHI-7326 dihydrochloride (referred to as WEHI-7326 from here), was tested at three dose concentrations of 5 mg/kg, 15 mg/kg and 30 mg/kg administered as a single dose via intravenous tail vein injection. The vehicle control, D-(+)-Glucose, was formulated at 5% w/v and administered per the above regime. On Study Day 15, all animals were terminated with blood collected for biochemistry, haematology and coagulation analysis before undergoing gross necropsy by a US board certified veterinary pathologist. The toxicokinetic satellite group comprised of 30 male rats which were allocated into four groups of three males in the vehicle control group and nine males in each of the three treatment groups. All treatment group animals were then allocated into three subgroups (A, B and C) and bled pre-dose, then 2min, 10min, 0.5h, 2h, 6h, 12h and 24h post-dose. All vehicle control group animals weren’t allocated to a specific subgroup but were bled at 10min and 12h post-dose. All TK animals were then terminated after the final blood collection. Dosing was suspended on Study Day 1 for both the Toxicity and Toxicokinetic Study animals following adverse reactions which lead to the early termination of two animals (one male treated with mid-dose WEHI-7326 from the Toxicity Study and one male treated with high-dose WEHI-7326 from the Toxicokinetic Study) approximately 5-10 minutes post-treatment. After consultation with the Sponsor, the following changes were made to the Study Design:
At the revised high dose of 20mg/kg, all male rats had to be terminated prematurely also due to reaching their body weight loss endpoint of >10% loss. […] Significant findings in clinical pathology outcomes were considered incidental and unrelated to test article treatment. The majority of macroscopic findings at necropsy were also considered to be incidental, however the findings of white streaks through the testes of male animals treated with WEHI-7326 may be related to treatment. Body weights were measured once prior to dose administration, then daily for the duration of the study and at termination. Clinical observations were performed on a daily basis.
The study followed test guideline OECD No. 420 (2001) “Acute Oral Toxicity - Fixed Dose Procedure” with the exception that the route of administration was intravenous (i.v.).

COc1ccc(CNc2nc(NCc3ccc(CN)cc3)nc(NN3CC(=O)NC3=O)n2)cc1 [WEHI-7326]
Body weight loss >10% (termination required) (incidence) (5 mg/kg single i.v.): 0/3
Mild fur loss around both eyes from Study Day 10 to 15 (incidence) (5 mg/kg single i.v.): 0/3
Mild impairment of gait and lack of response to stimuli up to 10 minutes post-dose (incidence) (5 mg/kg single i.v.): 0/3
No remarkable observations (incidence) (5 mg/kg single i.v.): 3/3
Lung - focal red areas medial right lobe (2 mm diameter) (incidence at necropsy) (5 mg/kg single i.v.): 0/3
Lung - haemorrhagic area right caudal lobe (1mm diameter) (incidence at necropsy) (5 mg/kg single i.v.): 0/3
Multifocal red petechiae on all lung lobes (incidence at necropsy) (5 mg/kg single i.v.): 1/3
Pale yellow liver (minimal) (incidence at necropsy) (5 mg/kg single i.v.): 1/3
ALP (5 mg/kg single i.v.): 286 ± 65 U/L
ALT (5 mg/kg single i.v.): 54 ± 11 U/L
APTT (5 mg/kg single i.v.): 17.2 ± 1.9 s
AST (5 mg/kg single i.v.): 93 ± 13 U/L
Albumin (5 mg/kg single i.v.): 37.3 ± 3.1 g/L
Albumin/Globulin (5 mg/kg single i.v.): 1.6 ± 0.4 Ratio
Bilirubin (Total) (5 mg/kg single i.v.): 0.8 ± 0.1 µM
Calcium (5 mg/kg single i.v.): 2.59 ± 0.07 mM
Chloride (5 mg/kg single i.v.): 102.4 ± 0.5 mM
Cholesterol (5 mg/kg single i.v.): 1.98 ± 0.21 mM
Creatinine (5 mg/kg single i.v.): 30 ± 3 µM
Globulin (5 mg/kg single i.v.): 23.7 ± 3.4 g/L
Glucose (5 mg/kg single i.v.): 7.57 ± 0.07 mM
HCT (5 mg/kg single i.v.): 0.45 ± 0.01 L/L
HGB (5 mg/kg single i.v.): 137.3 ± 4.9 g/L
MCH (5 mg/kg single i.v.): 18.87 ± 0.45 pg
MCHC (5 mg/kg single i.v.): 303.0 ± 4.4 g/L
MCV (5 mg/kg single i.v.): 62.3 ± 0.9 fL
PLT (5 mg/kg single i.v.): 1080.0 ± 206.7 10^9/L
PT (5 mg/kg single i.v.): 21.9 ± 1.0 s
Phosphate (5 mg/kg single i.v.): 1.75 ± 0.14 mM
Potassium (5 mg/kg single i.v.): 5.30 ± 0.14 mM
Protein (Total) (5 mg/kg single i.v.): 61.0 ± 0.4 g/L
RBC (5 mg/kg single i.v.): 7.27 ± 0.14 10^12/L
Retc. (5 mg/kg single i.v.): 3.76 ± 0.62%
Sodium (5 mg/kg single i.v.): 138 ± 1 mM
Triglycerides (5 mg/kg single i.v.): 0.86 ± 0.29 mM
Urea (5 mg/kg single i.v.): 6.56 ± 1.18 mM
WBC (5 mg/kg single i.v.): 11.28 ± 4.18 10^9/L
Body weight loss >10% (termination required) (incidence) (15 mg/kg single i.v.): 2/3
Mild fur loss around both eyes from Study Day 10 to 15 (incidence) (15 mg/kg single i.v.): 0/3
Mild impairment of gait and lack of response to stimuli up to 10 minutes post-dose (incidence) (15 mg/kg single i.v.): 0/3
No remarkable observations (incidence) (15 mg/kg single i.v.): 1/3
Lung - focal red areas medial right lobe (2 mm diameter) (incidence at necropsy) (15 mg/kg single i.v.): 0/1
Lung - haemorrhagic area right caudal lobe (1mm diameter) (incidence at necropsy) (15 mg/kg single i.v.): 0/1
Multifocal red petechiae on all lung lobes (incidence at necropsy) (15 mg/kg single i.v.): 0/1
Pale yellow liver (minimal) (incidence at necropsy) (15 mg/kg single i.v.): 0/1
ALP (15 mg/kg single i.v.): 218 ± 0 U/L
ALT (15 mg/kg single i.v.): 55 ± 0 U/L
APTT (15 mg/kg single i.v.): 18.6 ± 0.0 s
AST (15 mg/kg single i.v.): 73 ± 0 U/L
Albumin (15 mg/kg single i.v.): 37.7 ± 0 g/L
Albumin/Globulin (15 mg/kg single i.v.): 1.3 ± 0 Ratio
Bilirubin (Total) (15 mg/kg single i.v.): 1.0 ± 0 µM
Calcium (15 mg/kg single i.v.): 2.48 ± 0 mM
Chloride (15 mg/kg single i.v.): 102.5 ± 0 mM
Cholesterol (15 mg/kg single i.v.): 1.59 ± 0 mM
Creatinine (15 mg/kg single i.v.): 27 ± 0 µM
Globulin (15 mg/kg single i.v.): 28.8 ± 0 g/L
Glucose (15 mg/kg single i.v.): 7.31 ± 0 mM
HCT (15 mg/kg single i.v.): 0.45 ± 0.00 L/L
HGB (15 mg/kg single i.v.): 136.0 ± 0.0 g/L
MCH (15 mg/kg single i.v.): 18.70 ± 0.00 pg
MCHC (15 mg/kg single i.v.): 306.0 ± 0.0 g/L
MCV (15 mg/kg single i.v.): 60.90 ± 0.0 fL
PLT (15 mg/kg single i.v.): 970.0 ± 0.0 10^9/L
PT (15 mg/kg single i.v.): 19.9 ± 0.0 s
Phosphate (15 mg/kg single i.v.): 1.53 ± 0 mM
Potassium (15 mg/kg single i.v.): 4.53 ± 0 mM
Protein (Total) (15 mg/kg single i.v.): 66.5 ± 0 g/L
RBC (15 mg/kg single i.v.): 7.31 ± 0.00 10^12/L
Retc. (15 mg/kg single i.v.): 4.52 ± 0.00%
Sodium (15 mg/kg single i.v.): 140 ± 0 mM
Triglycerides (15 mg/kg single i.v.): 0.76 ± 0 mM
Urea (15 mg/kg single i.v.): 6.91 ± 0 mM
WBC (15 mg/kg single i.v.): 10.28 ± 0.00 10^9/L
Body weight loss >10% (termination required) (incidence) (20 mg/kg single i.v.): 0/3
Mild fur loss around both eyes from Study Day 10 to 15 (incidence) (20 mg/kg single i.v.): 1/3
Mild impairment of gait and lack of response to stimuli up to 10 minutes post-dose (incidence) (20 mg/kg single i.v.): 1/3
No remarkable observations (incidence) (20 mg/kg single i.v.): 2/3
Lung - focal red areas medial right lobe (2 mm diameter) (incidence at necropsy) (20 mg/kg single i.v.): 1/3
Lung - haemorrhagic area right caudal lobe (1mm diameter) (incidence at necropsy) (20 mg/kg single i.v.): 1/3
Multifocal red petechiae on all lung lobes (incidence at necropsy) (20 mg/kg single i.v.): 0/3
Pale yellow liver (minimal) (incidence at necropsy) (20 mg/kg single i.v.): 0/3
ALP (20 mg/kg single i.v.): 171 ± 38 U/L
ALT (20 mg/kg single i.v.): 70 ± 9 U/L
APTT (20 mg/kg single i.v.): 17.3 ± 1.0 s
AST (20 mg/kg single i.v.): 93 ± 14 U/L
Albumin (20 mg/kg single i.v.): 36.5 ± 1.1 g/L
Albumin/Globulin (20 mg/kg single i.v.): 1.3 ± 0.1 Ratio
Bilirubin (Total) (20 mg/kg single i.v.): 1.2 ± 0.3 µM
Calcium (20 mg/kg single i.v.): 2.71 ± 0.12 mM
Chloride (20 mg/kg single i.v.): 100.5 ± 0.7 mM
Cholesterol (20 mg/kg single i.v.): 2.16 ± 0.31 mM
Creatinine (20 mg/kg single i.v.): 38 ± 5 µM
Globulin (20 mg/kg single i.v.): 27.9 ± 1.2 g/L
Glucose (20 mg/kg single i.v.): 7.29 ± 0.68 mM
HCT (20 mg/kg single i.v.): 0.46 ± 0.01 L/L
HGB (20 mg/kg single i.v.): 134.3 ± 3.2 g/L
MCH (20 mg/kg single i.v.): 18.53 ± 0.84 pg
MCHC (20 mg/kg single i.v.): 290.7 ± 1.5 g/L
MCV (20 mg/kg single i.v.): 63.7 ± 2.5 fL
PLT (20 mg/kg single i.v.): 957.0 ± 63.5 10^9/L

— publication PMC7955127, “Preclinical small molecule WEHI-7326 overcomes drug resistance and elicits response in patient-derived xenograft models of human treatment-refractory tumors” (Cell Death & Disease, 2021)
